These are literature values, as cited in publication PMC10994420, “Development of peptides for targeting cell ablation agents concurrently to the Sertoli and Leydig cell populations of the testes: An approach to non-surgical sterilization” (PLOS ONE, 2024).

Numbered stars: 1 amine (or outer) side, 2 acyl side, 3 side chain; on linkers, the order of the positions; unused ones are H or OH. Square brackets hold non-standard residues; d marks the D form. Peptide text beside a SMILES is read from it. * marks the point of attachment. Dolaproine = CO[C@@H]([C@@H]1CCCN1)[C@@H](C)C(=O)O; Hexanoyl(6-maleimido) = O=C1C=CC(=O)N1CCCCCC(=O)*; Dil = CC[C@H](C)[C@H](NC)[C@@H](CC(=O)O)OC; PABC = O=C(OCc1ccc(N[*:1])cc1)[*:2]; X1 = C[C@@H](N*)[C@@H](O)c1ccccc1; Cit = NC(=O)NCCC[C@H](N)C(=O)O; NMeV = CN[C@H](C(=O)O)C(C)C

The conditions of data set [1]: maleimide form with valine-citrulline linker; ref https://www.chemsrc.com/en/cas/646502-53-6_1197872.html. The source says: Among these criteria, aqueous solubility was considered an important factor, both in the context of reaction with Auristatin and for use of biocompatible solvents for in vivo delivery.
For data set [2] the following is noted: no reference given. Here is the method:
Four treatment groups of ten 55-day-old male Swiss male CD1 mice were injected intraperitoneally. Treatments included: (1) […] vehicle control (30% Solutol (Kolliphor)/PBS), (2) 300 μL/30 g 14.5 mM FSH2Menadione, (3) 100 μL/30g 425 μM LH2Aur, or (4) 300 μL/30 g 14.5 mM FSH2Menadione plus 100 μL/30g 425 μM LH2Aur (consecutive injections, 16 h apart). The dose of 1 mg/kg of conjugated Auristatin was determined with reference to the work by Doronina et al., who determined the maximum tolerated dose (MTD) of conjugated Auristatin for mice is 1.1 mg/kg. Solubility of the FSH2Menadione was ...

Take `CC[C@H](C)[C@@H]([C@@H](CC(=O)N1CCC[C@H]1[C@H](OC)[C@@H](C)C(=O)N[C@H](C)[C@@H](O)c1ccccc1)OC)N(C)C(=O)[C@@H](NC(=O)[C@H](C(C)C)N(C)C(=O)OCc1ccc(NC(=O)[C@H](CCCNC(N)=O)NC(=O)[C@@H](NC(=O)CCCCCN2C(=O)C=CC2=O)C(C)C)cc1)C(C)C` [Auristatin, maleimide-valine-citrulline- para-aminobenzyloxycarbonyl -monomethyl-Auristatin E] ({Hexanoyl(6-maleimido)}-V[Cit][PABC][NMeV]V[Dil][Dolaproine]-X1): in data set [1], the aqueous solubility result is “very poor” and the logP value is reported as 6.04.
As to `CC1=CC(=O)c2ccccc2C1=O` [menadione, 2-methyl-1,4-naphthoquinone], in data set [2], the MTD is reported as 830 mg/kg.
